Experimental data as given in US20110027300A1, “Identification of a novel cysteine-rich cell penetrating peptide” (Max-Planck-Gesellschaft zur Forderung der Wissenschaften …, priority 2008, published 2011).
Read-outs that look alike come from different tables or passages of the source. Square brackets hold non-standard residues; d marks the D form. Ends that are not written are not given here. K(FITC) = lysine labelled with FITC

Tests used:
[1] = test system: N18 mouse neuroblastoma (undifferentiated); assay: Internalization in additional cell lines; format: cell-based
Protocol: (§1) C6 rat glioma N18 mouse neuroblastoma (differentiated, undifferentiated) CCL-11 mouse fibrosarcoma Shin3 human ovarian carcinoma PANC1 human pancreatic carcinoma Primary murine bone marrow cells
(§2) Cells were cultivated using their respective optimized growth medium and passaged as described. Differentiation was induced in N18 cells by stepwise reduction of serum in the growth medium from 10% to 1.25%.
(§3) Internalization experiments on cells were performed in 96 well microplates by inoculation of NIH 3T3 fibroblasts (1×10^4 cells/well). After 24 h, cells were incubated with 2.5 μM of different peptide solutions in DMEM for additional 18 h at 37° C. with 10% CO2. Before washing, cells were incubated with Bisbenzimid 33342 (Hoechst 33342), a nuclear stain, in order to estimate the cell number. Cells were washed with Hanks' buffered saline (Biochrom AG, Germany) and extracellular fluorescence was quenched by incubating with cold trypan blue 0.05% (w/v) in phosphate-buffered saline (Biochrom AG, Germany) for 3 min followed by repeated washes with Hanks' buffered saline. Cell-related FITC fluorescence (Ex 485 nm/Em 530 nm) and cell number (Ex 346 nm/Em 460 nm) was evaluated in a multiplate reader. Experiments were run at least three times for each peptide with six replicates. Statistical analysis was performed by Student's t-test or ANOVA with Dunnett's post test. P values <0.05 were considered significant. The results are depicted in FIGS. 1 to 3.
(§4) The same cells were subjected to microscopic studies without fixation using a Zeiss Axiovert 200 M (Germany) microscope with a LD Plan NeoFluor 40× objective. The imaging conditions were kept constant for the observation of different samples. Cellular localization and distribution of the peptide was observed by irradiating with blue light (470/40 nm) and observing at 525/50 nm. The bright punctate and encapsulated appearing FITC fluorescence was categorized as vesicular uptake while diffused fluorescence appeared to be distributed in the entire cell with similar intensity. […] Also phase contrast images with DIC of the same area were made to observe if the cells maintain their normal morphology in the presence of peptides.

C6 rat glioma = assay: Internalization in additional cell lines; format: cell-based
Protocol: as §1, §2, §3, §4

[2] = test system: Shin3 human ovarian carcinoma; assay: Internalization in additional cell lines; format: cell-based
Protocol: as §1, §2, §3, §4

[3] = test system: CCL-11 mouse fibrosarcoma; assay: Internalization in additional cell lines; format: cell-based
Protocol: as §1, §2, §3, §4

[4] = test system: PANC1 human pancreatic carcinoma; assay: Internalization in additional cell lines; format: cell-based
Protocol: as §1, §2, §3, §4

[5] = test system: Primary murine bone marrow cells; assay: Internalization in additional cell lines; format: cell-based, mouse
Protocol: as §1
Bone marrow cells were extracted from hind legs of sacrificed mice and were kept in supplemented IMDM medium.
as §3, with “3. […]” for “3.”

NIH 3T3 fibroblasts [6] = assay: Uptake assay: cell-related FITC fluorescence corrected for cell number; format: cell-based, mouse; settings: for cellular uptake / internalization efficiency: K(FITC)-labelled peptide
Protocol: NIH 3T3 mouse fibroblast cells were cultured as a monolayer at 37° C. with 10% CO2 in Dulbecco's Modified Eagle's Medium (DMEM) supplemented with 10% fetal bovine serum, 4 mM L-glutamine, 100 μg/mL streptomycin and 100 U/mL penicillin (all purchased from Biochrom AG, Germany). Cells were passaged by trypsinization with trypsin/EDTA 0.05/0.02% (w/v) in phosphate-buffered saline (PBS; Biochrom AG, Germany) every second to third day.
as §3

NIH 3T3 fibroblasts [7] = assay: Fluorescence microscopy of cellular localization and distribution of the peptide; format: cell-based, mouse; settings: for intracellular fluorescence distribution (vesicular / diffused cytosolic): K(FITC)-labelled peptide, 2.5 μM, live cells without fixation
Text: as §4

[8] = Peptide NMR in water, solution state; format: physicochemical
Protocol: Sample solutions were prepared at pH 4-4.5 and pH 6.5-7 in water. At pH 4.5 standard set of 2D homonuclear experiments (2D-ipCOSY, 2D-TOCSY, two 2D-NOESY spectra at different mixing times (100 and 200 ms)) and heteronuclear experiments (^13C-HSQC and ^15N-HSQC) were performed. The sample yielded well resolved spectra consistent with a monomeric peptide. Using these spectra it was possible to complete a full assignment of all non-exchangeable proton resonances, plus the carbon and nitrogen resonances.
Whereas at pH 6.5, broadening of lines, probably due to the formation of high molecular weight aggregates, makes it difficult to assign individual resonances. Thus, the presence or absence of disulfide bridges in this sample could not be deduced.
NMR experiments were carried out at 600 MHz on a Bruker Avance III spectrometer.

[9] = test system: differentiated N18 neuroblastoma cells; assay: Internalization in additional cell lines; format: cell-based, mouse; settings: differentiated N18, serum reduced from 10% to 1.25%
Protocol: as §1, §2
as §3, with “P values <0.05 were considered significant. The results are depicted in FIGS. 1 to 3.” left out

cells = settings: cited from earlier work
[10] = test system: different cell types and mouse blastocysts; settings: cited from earlier work

## K (FITC)-CRWRWKCCKK ({K(FITC)}-CRWRWKCCKK; cysteine pairing not given here) [peptide 23]
[1]
  uptake behaviour and fluorescence distribution: comparable uptake behaviour with vesicular as well as diffused cytosolic fluorescence distribution
C6 rat glioma
  uptake behaviour and fluorescence distribution: comparable uptake behaviour with vesicular as well as diffused cytosolic fluorescence distribution
[2]
  uptake behaviour and fluorescence distribution: comparable uptake behaviour with vesicular as well as diffused cytosolic fluorescence distribution
[3]
  uptake behaviour and fluorescence distribution: comparable uptake behaviour with vesicular as well as diffused cytosolic fluorescence distribution
[4]
  uptake behaviour and fluorescence distribution: comparable uptake behaviour with vesicular as well as diffused cytosolic fluorescence distribution
[5]
  uptake behaviour and fluorescence distribution: comparable uptake behaviour with vesicular as well as diffused cytosolic fluorescence distribution
NIH 3T3 fibroblasts [6]; 2.5 μM
  delivery efficiency compared with penetratin: better taken up by cells
NIH 3T3 fibroblasts [6]; 2.5 μM, 18 h, 37° C.
  cellular uptake / internalization efficiency: competently taken up by cells
NIH 3T3 fibroblasts [6]; excess DTT in the incubation medium
  uptake and cytosolic diffused fluorescence on addition of Dithiothreitol (DTT): reduced the uptake as well as the cytosolic diffused fluorescence
NIH 3T3 fibroblasts [6]; subtoxic concentrations
  concentration at which efficient cellular uptake and cytosolic location along with vesicular distribution is shown: < 2.5 µM
NIH 3T3 fibroblasts [7]
  intracellular fluorescence distribution (vesicular / diffused cytosolic): endosomal as well as cytoplasmic fluorescence distribution
NIH 3T3 fibroblasts [7]; concentration as low as 2.5 μM
  cytosolic distribution at low concentration: retaining the cytosolic distribution
[8]; pH 4.5 in water
  solution state of the peptide: unstructured and in a reduced state
[8]; pH 6.5 in water
  solution state of the peptide: aggregation
[9]
  uptake: strongly reduced

## K (FITC)-KMDCRWRWKCCKK ({K(FITC)}-KMDCRWRWKCCKK; cysteine pairing not given here) [peptide 1, reference compound]
NIH 3T3 fibroblasts [6]; 2.5 μM, 18 h, 37° C.
  cellular uptake / internalization efficiency: efficient CPP
cells
  internalization into cells: able to internalize into cells
NIH 3T3 fibroblasts [7]
  intracellular fluorescence distribution (vesicular / diffused cytosolic): cytoplasmic diffusion

## Ac-tccgtgaacggc-K(FITC)-CRWRWKCCKK-CONH2 (chain 1 Ac-[code t][code c][code c][code g][code t][code g][code a][code a][code c][code g][code g][code c]; chain 2 {K(FITC)}-CRWRWKCCKK-NH2; not fully specified (C-terminus); cysteine pairing not given here; also: chain 1 is a PNA strand joined via Lys(FITC) to peptide chain 2) [PNA-CyLoP-1 fusion]
NIH 3T3 fibroblasts [6]; 2.5 μM, 18 h, 37° C.
  uptake compared to peptide 23 (CyLoP-1): lowest intracellular fluorescence

## Crotamine
[10]; applied before cell division, after the telophase
  intracellular localization: mainly localized in the cytoplasm
[10]
  intracellular localization: localize preferably in the nucleus
  non-toxic concentration: up to 1 μM
[10]; in vitro
  cell penetration: penetrating into different cell types and mouse blastocysts
